Laboratory results from PMC5207657 (Journal of the American Chemical Society, 2016).
*1 amine or outer side, *2 acyl side, *3 side chain or, on linkers, in order; H or OH if unused. Where a SMILES comes first, the peptide text is derived from it. [ ]: non-standard residue; d: D form. X1 = O=C([C@H]1CCC[C@@H]1N[*:1])[*:2]; X2 = O=C([C@H]1CNC[C@@H]1N[*:1])[*:2]; Aib = CC(C)(N)C(=O)O

Assays:
[1] = target: T1, GLP-1R (Homo sapiens, UniProt P43220); assay: cell-based; settings: HEK293FT, read-out: β-Arrestin-2 Max Response (% GLP-1)
[2] = target: T1, GLP-1R; assay: GloSensor cAMP reporter assay; assay type: cell-based; settings: read-out: cAMP Max Response (% GLP-1)
[3] = target: T1, GLP-1R; assay: β-arrestin-1 recruitment BRET^2 assay; settings: for Emax: HEK293FT, read-out: β-Arrestin-1 Max Response (% GLP-1)
[4] = target: T1, GLP-1R; settings: within the concentration range examined (up to 1 µM)
[5] = test system: mouse pancreatic islets; settings: cited from earlier work
[6] = previous studies; cited from earlier work
[7] = target: Human GLP-1R (glucagon-like peptide-1 receptor) (human) (UniProt P43220)
Sequence of Human GLP-1R (glucagon-like peptide-1 receptor) (human) (P43220 24-463): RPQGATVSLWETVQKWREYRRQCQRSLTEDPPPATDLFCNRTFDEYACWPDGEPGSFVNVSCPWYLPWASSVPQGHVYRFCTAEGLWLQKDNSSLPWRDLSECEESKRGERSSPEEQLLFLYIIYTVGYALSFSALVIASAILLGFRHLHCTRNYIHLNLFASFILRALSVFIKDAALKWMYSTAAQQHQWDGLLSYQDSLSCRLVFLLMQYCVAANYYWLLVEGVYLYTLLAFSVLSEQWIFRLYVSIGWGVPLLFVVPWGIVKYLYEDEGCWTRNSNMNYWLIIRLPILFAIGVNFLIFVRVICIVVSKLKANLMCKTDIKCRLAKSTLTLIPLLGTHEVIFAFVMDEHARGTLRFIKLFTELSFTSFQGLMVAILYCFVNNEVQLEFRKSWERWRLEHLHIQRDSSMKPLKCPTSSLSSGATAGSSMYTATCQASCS

T1 sequence (P43220 24-463): as above

Molecule | Emax [1] [%] | Emax [2] [%] | Emax [3] [%] | β-arrestin-2 recruitment, result in words [4] | insulin secretagogue activity compared with GLP-1 [5] | control of blood glucose in vivo [6] | duration of glucose control relative to GLP-1 [6] | β-arrestin-1 recruitment, result in words ([3]; within the concentration range examined (up to 1 µM)) | cAMP production (GloSensor reporter cells), pEC50 [7]
CC[C@H](C)[C@H](NC(=O)[C@H](Cc1ccccc1)NC(=O)[C@H](CCC(=O)O)NC(=O)[C@H]1CNC[C@@H]1NC(=O)[C@H](C)NC(=O)[C@H](C)NC(=O)[C@H](CCC(N)=O)NC(=O)CNC(=O)[C@H](CCC(=O)O)NC(=O)[C@H](CC(C)C)NC(=O)[C@H](Cc1ccc(O)cc1)NC(=O)[C@H](CO)NC(=O)[C@H](CO)NC(=O)[C@@H](NC(=O)[C@H](CC(=O)O)NC(=O)[C@H](CO)NC(=O)[C@@H](NC(=O)[C@H](Cc1ccccc1)NC(=O)[C@@H](NC(=O)CNC(=O)[C@H](CCC(=O)O)NC(=O)[C@H](C)NC(=O)[C@@H](N)Cc1c[nH]cn1)[C@@H](C)O)[C@@H](C)O)C(C)C)C(=O)N[C@H]1CCC[C@@H]1C(=O)N[C@@H](Cc1c[nH]c2ccccc12)C(=O)N[C@@H](CC(C)C)C(=O)N[C@H](C(=O)N[C@H]1CNC[C@@H]1C(=O)NCC(=O)N[C@@H](CCCNC(=N)N)C(=O)NCC(N)=O)C(C)C [α/β-Peptide 1] (H-HAEGTFTSDVSSYLEGQAA[X2]EFI[X1]WLV[X2]GRG-NH2) | 78 ± 4 | 101 ± 1 | 88 ± 6 |  |  |  |  |  | 
CC[C@H](C)[C@H](NC(=O)[C@H](Cc1ccccc1)NC(=O)[C@H](CCC(=O)O)NC(=O)[C@H]1CNC[C@@H]1NC(=O)[C@H](C)NC(=O)[C@H](C)NC(=O)[C@H](CCC(N)=O)NC(=O)[C@H]1CCC[C@@H]1NC(=O)[C@H](CCC(=O)O)NC(=O)[C@H](CC(C)C)NC(=O)[C@H](Cc1ccc(O)cc1)NC(=O)[C@H]1CCC[C@@H]1NC(=O)[C@H](CO)NC(=O)C(C)(C)NC(=O)[C@H](CC(=O)O)NC(=O)[C@H](CO)NC(=O)[C@@H](NC(=O)[C@H](Cc1ccccc1)NC(=O)[C@@H](NC(=O)CNC(=O)[C@H](CCC(=O)O)NC(=O)C(C)(C)NC(=O)[C@@H](N)Cc1c[nH]cn1)[C@@H](C)O)[C@@H](C)O)C(=O)N[C@H]1CCC[C@@H]1C(=O)N[C@@H](Cc1c[nH]c2ccccc12)C(=O)N[C@@H](CC(C)C)C(=O)N[C@H](C(=O)N[C@H]1CNC[C@@H]1C(=O)NCC(=O)N[C@@H](CCCNC(=N)N)C(=O)NCC(N)=O)C(C)C [α/β-Peptide 4] (H-H[Aib]EGTFTSD[Aib]S[X1]YLE[X1]QAA[X2]EFI[X1]WLV[X2]GRG-NH2) | 13 ± 4 | 60 ± 5 | 6 ± 8 | no significant recruitment | indistinguishable | can control blood glucose in vivo | prolonged | no significant recruitment | 
CC[C@H](C)[C@H](NC(=O)[C@H](Cc1ccccc1)NC(=O)[C@H](CCC(=O)O)NC(=O)[C@H]1CNC[C@@H]1NC(=O)[C@H](C)NC(=O)[C@H](C)NC(=O)[C@H](CCC(N)=O)NC(=O)[C@H]1CCC[C@@H]1NC(=O)[C@H](CCC(=O)O)NC(=O)[C@H](CC(C)C)NC(=O)[C@H](Cc1ccc(O)cc1)NC(=O)[C@H]1CCC[C@@H]1NC(=O)[C@H](CO)NC(=O)[C@@H](NC(=O)[C@H](CC(=O)O)NC(=O)[C@H](CO)NC(=O)[C@@H](NC(=O)[C@H](Cc1ccccc1)NC(=O)[C@@H](NC(=O)CNC(=O)[C@H](CCC(=O)O)NC(=O)[C@H](C)NC(=O)[C@@H](N)Cc1c[nH]cn1)[C@@H](C)O)[C@@H](C)O)C(C)C)C(=O)N[C@@H](C)C(=O)N[C@@H](Cc1c[nH]c2ccccc12)C(=O)N[C@@H](CC(C)C)C(=O)N[C@H](C(=O)N[C@@H](CCCCN)C(=O)NCC(=O)N[C@@H](CCCNC(=N)N)C(=O)NCC(N)=O)C(C)C [α/β-Peptide 8] (H-HAEGTFTSDVS[X1]YLE[X1]QAA[X2]EFIAWLVKGRG-NH2) | 63 ± 5 | 96 ± 1 | 43 ± 3 |  |  |  |  |  | 
CC[C@H](C)[C@H](NC(=O)[C@H](Cc1ccccc1)NC(=O)[C@H](CCC(=O)O)NC(=O)[C@H]1CNC[C@@H]1NC(=O)[C@H](C)NC(=O)[C@H](C)NC(=O)[C@H](CCC(N)=O)NC(=O)[C@H]1CCC[C@@H]1NC(=O)[C@H](CCC(=O)O)NC(=O)[C@H](CC(C)C)NC(=O)[C@H](Cc1ccc(O)cc1)NC(=O)[C@H]1CCC[C@@H]1NC(=O)[C@H](CO)NC(=O)C(C)(C)NC(=O)[C@H](CC(=O)O)NC(=O)[C@H](CO)NC(=O)[C@@H](NC(=O)[C@H](Cc1ccccc1)NC(=O)[C@@H](NC(=O)CNC(=O)[C@H](CCC(=O)O)NC(=O)[C@H](C)NC(=O)[C@@H](N)Cc1c[nH]cn1)[C@@H](C)O)[C@@H](C)O)C(=O)N[C@@H](C)C(=O)N[C@@H](Cc1c[nH]c2ccccc12)C(=O)N[C@@H](CC(C)C)C(=O)N[C@H](C(=O)N[C@@H](CCCCN)C(=O)NCC(=O)N[C@@H](CCCNC(=N)N)C(=O)NCC(N)=O)C(C)C [α/β-Peptide 9] (H-HAEGTFTSD[Aib]S[X1]YLE[X1]QAA[X2]EFIAWLVKGRG-NH2) | 59 ± 2 | 97 ± 2 | 41 ± 4 |  |  |  |  |  | 
CC[C@H](C)[C@H](NC(=O)[C@H](Cc1ccccc1)NC(=O)[C@H](CCC(=O)O)NC(=O)[C@H]1CNC[C@@H]1NC(=O)[C@H](C)NC(=O)[C@H](C)NC(=O)[C@H](CCC(N)=O)NC(=O)CNC(=O)[C@H](CCC(=O)O)NC(=O)[C@H](CC(C)C)NC(=O)[C@H](Cc1ccc(O)cc1)NC(=O)[C@H]1CCC[C@@H]1NC(=O)[C@H](CO)NC(=O)[C@@H](NC(=O)[C@H](CC(=O)O)NC(=O)[C@H](CO)NC(=O)[C@@H](NC(=O)[C@H](Cc1ccccc1)NC(=O)[C@@H](NC(=O)CNC(=O)[C@H](CCC(=O)O)NC(=O)[C@H](C)NC(=O)[C@@H](N)Cc1c[nH]cn1)[C@@H](C)O)[C@@H](C)O)C(C)C)C(=O)N[C@@H](C)C(=O)N[C@@H](Cc1c[nH]c2ccccc12)C(=O)N[C@@H](CC(C)C)C(=O)N[C@H](C(=O)N[C@@H](CCCCN)C(=O)NCC(=O)N[C@@H](CCCNC(=N)N)C(=O)NCC(N)=O)C(C)C [α/β-Peptide 13] (H-HAEGTFTSDVS[X1]YLEGQAA[X2]EFIAWLVKGRG-NH2) | 74 ± 4 | 104 ± 1 | 80 ± 3 |  |  |  |  |  | 
GLP-1(7–36)NH2 (peptide) |  |  |  |  |  |  |  |  | -10.3 pEC50 (M)
